Each structure is given as a SMILES string. Like-named read-outs stand apart in the source and are kept apart here.

For data set [1] the following is noted: rcm bond.
The next data set deals with T1, ShhN protein (Homo sapiens, UniProt Q15465).
T1 construct: auto-cleavage of full length Shh into an active 20 kD N-terminal fragment (ShhN); purchased R&D Systems
Nature of the data set: Surface Plasmon Resonance (SPR) protein binding assay on immobilized ShhN. Conditions: SPR, Biacore T100, ShhN immobilized on CM4 chip, 25° C., compound 0.78 μM-25 μM; read-out: KD. On the procedure:
Biacore™ T100 (GE Healthcare, Uppsala, Sweden) was used to perform the experiments described herein. Sensor surface preparation and interaction analyses experiments were performed at 25° C.
Control surfaces were prepared similarly without protein derivatization and were utilized as a reference surfaces for compound binding experiments.
Zero concentration blank buffer cycles were included as negative control samples.
Data analysis was carried out using Biacore T100 evaluation software v1.1.1. […] Solvent correction was then applied as described previously.

T1 sequence (Q15465 24-197 limits assumed, species assumed): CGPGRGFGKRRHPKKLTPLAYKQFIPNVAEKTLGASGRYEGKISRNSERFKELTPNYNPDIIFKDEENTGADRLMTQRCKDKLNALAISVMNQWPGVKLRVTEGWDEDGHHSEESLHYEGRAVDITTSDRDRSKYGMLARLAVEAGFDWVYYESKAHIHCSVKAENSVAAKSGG

In turn, `CC(C)(C)OC(=O)N[C@@H]1C/C=C/CCC(=O)OC[C@@H]2CCCN2C1=O` displayed a ring closure, yield of all isomers in data set [1] (from C=CCCC(=O)OC[C@@H]1CCCN1C(=O)[C@@H](CC=C)NC(=O)OC(C)(C)C, toluene) of 19%.
`C[C@@H]1COC(=O)[C@H](C)C/C=C/CCC(=O)N1`: the ring closure, yield of all isomers in data set [1] (from C=CCCC(=O)N[C@H](C)COC(=O)[C@H](C)CC=C, toluene, 3 steps) worked out at 38%.
Consider `C[C@@H]1CC=CCCC(=O)N[C@@H](c2ccccc2)COC1=O`, for which, in data set [1] (from C=CCCC(=O)N[C@H](COC(=O)[C@H](C)CC=C)c1ccccc1, toluene, 25.0 °C, 16.0 h), the ring closure, yield of all isomers amounted to 72%.
`C[C@@H]1C/C=C/CCC(=O)N[C@@H]2c3ccccc3C[C@H]2OC1=O` returned a ring closure, yield of all isomers in data set [1] (from C=CCCC(=O)N[C@@H]1c2ccccc2C[C@H]1OC(=O)[C@H](C)CC=C, DCM) of 61.8%.
As for `CC(C)(C)OC(=O)N[C@@H]1C/C=C/CCC(=O)N[C@H](c2ccccc2)COC1=O`, the ring closure, yield of all isomers in data set [1] (from C=CCCC(=O)N[C@@H](COC(=O)[C@@H](CC=C)NC(=O)OC(C)(C)C)c1ccccc1, Grubbs II, DCM, 20.0 mM, 25.0 °C, 3.0 h) was found to be 64%.
In data set [1] (from C=CCCC(=O)OC[C@@H]1CCCN1C(=O)[C@@H](C)CC=C, toluene, 3 steps), `C[C@H]1C/C=C/CCC(=O)OC[C@@H]2CCCN2C1=O` had a ring closure, yield of all isomers of 25%.
The compound `C[C@@H]1C/C=C/CCCC(=O)N[C@H](c2ccccc2)COC1=O` yielded a ring closure, yield of all isomers in data set [1] (from C=CCCCC(=O)N[C@@H](COC(=O)[C@H](C)CC=C)c1ccccc1, toluene) of 67%.
`CN1C[C@@H](c2ccccc2)OC(=O)CC/C=C/C[C@@H](CC(=O)NCC2CCOCC2)C1=O` [Example EX, 2-((2R,6S,E)-4-methyl-5,12-dioxo-2-phenyl-1-oxa-4-azacyclododec-8-en-6-yl)-N-((tetrahydro-2H-pyran-4-yl)methyl)acetamide]: at ShhN protein, the Kd fell in the range of 1000 to 100000 nM.
On the same count and under the same terms, next, `C[C@H]1[C@@H](c2ccccc2)OC(=O)CC[C@H](O)[C@@H](O)C[C@@H](CC(=O)NCc2ccc(Cl)cc2)C(=O)N1C` [Example BB, N-(4-chlorobenzyl)-2-((2R,3S,6S,8S,9S)-8,9-dihydroxy-3,4-dimethyl-5,12-dioxo-2-phenyl-1-oxa-4-azacyclododecan-6-yl)acetamide]: 1000 to 100000 nM; `O=C(C[C@@H]1CCCCCC(=O)OC[C@@H]2CCCN2C1=O)NCc1ccc(Cl)cc1` [Example FB, N-(4-chlorobenzyl)-2-((9S,14aS)-3,10-dioxododecahydro-1H-pyrrolo[2,1-c][1,4]oxaazacyclododecin-9-yl)acetamide]: 1000 to 100000 nM.
In data set [1] (from C=CCCC(=O)N[C@@H](COC(=O)[C@@H](CC=C)O[Si](C)(C)C(C)(C)C)c1ccccc1, toluene), `CC(C)(C)[Si](C)(C)O[C@@H]1C/C=C/CCC(=O)N[C@H](c2ccccc2)COC1=O` returned a ring closure, yield of all isomers of 65%.
On to `CC(C)(C)OC(=O)C[C@@H]1C/C=C/CCC(=O)N[C@@H]2c3ccccc3C[C@@H]2OC1=O` [FW, tert-butyl 2-((3S,10aR,15aS,E)-2,9-dioxo-2,3,4,7,8,9,10,10a,15,15a-decahydroindeno[2,1-b][1,4]oxaazacyclododecin-3-yl)acetate], for which the Kd at ShhN protein was below 100 nM.
On the same count and under the same terms, next, `O=C(C[C@@H]1C/C=C/CCC(=O)O[C@H](c2ccccc2)CNC1=O)NCc1ccccc1` [EN]: 1000 to 100000 nM; `O=C(C[C@@H]1C/C=C/CCC(=O)O[C@H](c2ccccc2)CNC1=O)NC(c1ccccc1)c1ccccc1` [EW]: above 100000 nM.
For the compound `C[C@@H]1C/C=C/CCC(=O)N[C@@H]2c3ccccc3C[C@@H]2OC1=O` [Example BV, (3R,10aR,15aS,E)-3-methyl-3,4,7,8,10,10a,15,15a-octahydroindeno[2,1-b][1,4]oxaazacyclododecine-2,9-dione], the equilibrium dissociation constant (Kd) on ShhN protein fell in the range of 100 to 1000 nM.
As to `C[C@@H]1CC=CC[C@@H](O[Si](C)(C)C(C)(C)C)C(=O)N[C@H](c2ccccc2)COC1=O`, in data set [1] (from C=CC[C@@H](C)C(=O)OC[C@H](NC(=O)[C@@H](CC=C)O[Si](C)(C)C(C)(C)C)c1ccccc1, toluene), the ring closure, yield of all isomers stood at 58%.
As for `C[C@@H]1C/C=C/CCC(=O)N[C@H]2CCC[C@@H]2OC1=O`, in data set [1] (from C=CCCC(=O)N[C@H]1CCC[C@@H]1OC(=O)[C@H](C)CC=C, toluene), the ring closure, yield of all isomers is 25.5%.
In the case of `CN1C[C@@H](c2ccccc2)OC(=O)CC/C=C/C[C@@H](Cc2ccc(Cl)cc2)C1=O` [Example BR, (2R,6S,E)-6-(4-chlorobenzyl)-4-methyl-2-phenyl-1-oxa-4-azacyclododec-8-ene-5,12-dione], at ShhN protein, the Kd is above 100000 nM.
Take `O=C(C[C@@H]1C/C=C/CCC(=O)O[C@H](c2ccccc2)CNC1=O)Nc1ccc(Cl)cc1` [EM]: the Kd at ShhN protein fell in the range of 1000 to 100000 nM.
The same measure, in the same setting: next, `CN(Cc1ccc(Cl)cc1)C(=O)C[C@@H]1C/C=C/CCC(=O)O[C@H](c2ccccc2)CN(C)C1=O` [EP]: above 100000 nM; `O=C1CC/C=C/C[C@@H](CC(=O)N2CCN(c3ncccn3)CC2)C(=O)NC[C@@H](c2ccccc2)O1` [EU]: 1000 to 100000 nM.
Still for that read-out and setting: for `O=C1CC/C=C/CCC(=O)OC[C@@H](c2ccccc2)N1` [F] the value was below 100 nM; for `COc1ccccc1[C@@H]1COC(=O)[C@H](CC(=O)OC(C)(C)C)C/C=C/CCC(=O)N1` [FY], below 100 nM; for `O=C(C[C@@H]1C/C=C/CCC(=O)N[C@H](c2ccccc2)COC1=O)NCC1CCOCC1` [FZ, 2-((3R,11S,E)-5,12-dioxo-3-phenyl-1-oxa-4-azacyclododec-8-en-11-yl)-N-((tetrahydro-2H-pyran-4-yl)methyl)acetamide], 1000 to 100000 nM.
Consider `O=C(C[C@@H]1C/C=C/C[C@H](O)C(=O)O[C@H](c2ccccc2)CNC1=O)NCc1ccc(Cl)cc1` [Example EC, N-(4-chlorobenzyl)-2-((2R,6S,11S,E)-11-hydroxy-5,12-dioxo-2-phenyl-1-oxa-4-azacyclododec-8-en-6-yl)acetamide], for which the Kd on ShhN protein was below 100 nM.
Same read-out and setting: for `N[C@@H]1C/C=C/CCC(=O)N[C@H](c2ccccc2)COC1=O` [Example AC, (3R,11R,E)-11-amino-3-phenyl-1-oxa-4-azacyclododec-8-ene-5,12-dione] the value was 1000 to 100000 nM; for `O=C(C[C@@H]1C/C=C/CCC(=O)N[C@@H]2c3ccccc3C[C@@H]2OC1=O)NCc1ccc(Cl)cc1` [Example BJ, N-(4-chlorobenzyl)-2-((3S,10aR,15aS,E)-2,9-dioxo-2,3,4,7,8,9,10,10a,15,15a-decahydroindeno[2,1-b][1,4]oxaazacyclododecin-3-yl)acetamide], 1000 to 100000 nM; for `C[C@@H]1C/C=C/C[C@@H](CC(=O)NCc2ccc(Cl)cc2)C(=O)NC[C@@H](c2ccccc2)OC1=O` [Example EA, N-(4-chlorobenzyl)-2-((2R,6S,11R,E)-11-methyl-5,12-dioxo-2-phenyl-1-oxa-4-azacyclododec-8-en-6-yl)acetamide], 100 to 1000 nM.
On the same count and under the same terms, for `O=C(C[C@@H]1C/C=C/CCC(=O)N2CCC[C@H]2COC1=O)NCc1ccc(Cl)cc1` [FT, N-(4-chlorobenzyl)-2-((4S,14aS,E)-3,10-dioxo-3,4,5,8,9,10,12,13,14,14a-decahydro-1H-pyrrolo[2,1-c][1,4]oxaazacyclododecin-4-yl)acetamide] the value was 1000 to 100000 nM; for `CCCC[C@@H]1COC(=O)[C@H](CC(=O)NCc2ccc(Cl)cc2)C/C=C/CCC(=O)N1` [FR, 2-((3R,11S,E)-3-butyl-5,12-dioxo-1-oxa-4-azacyclododec-8-en-11-yl)-N-(4-chlorobenzyl)acetamide], 1000 to 100000 nM; for `C[C@H]1[C@@H](c2ccccc2)OC(=O)CC/C=C\C[C@@H](CC(=O)NCc2ccc(Cl)cc2)C(=O)N1C` [Example EZ, N-(4-chlorobenzyl)-2-((2R,3S,6S,Z)-3,4-dimethyl-5,12-dioxo-2-phenyl-1-oxa-4-azacyclododec-8-en-6-yl)acetamide], above 100000 nM.
With `CC(C)[C@@H]1COC(=O)[C@H](CC(=O)NCc2ccc(Cl)cc2)C/C=C/CCC(=O)N1` [FQ, N-(4-chlorobenzyl)-2-((3R,11S,E)-3-isopropyl-5,12-dioxo-1-oxa-4-azacyclododec-8-en-11-yl)acetamide], on ShhN protein, the Kd was 100 to 1000 nM.
`C[C@@H]1NC(=O)[C@H](CC(=O)NCc2ccc(Cl)cc2)C/C=C/CCC(=O)O[C@@H]1c1ccccc1` [FP, N-(4-chlorobenzyl)-2-((2R,3S,6S,E)-3-methyl-5,12-dioxo-2-phenyl-1-oxa-4-azacyclododec-8-en-6-yl)acetamide]: on ShhN protein, the Kd is above 100000 nM.
Take `O=C(C[C@@H]1C/C=C/CCC(=O)O[C@H](c2ccccc2)CNC1=O)NCc1ccc(Cl)c(C(F)(F)F)c1` [EK]: the Kd on ShhN protein is above 100000 nM.

(Values after US20140094462A1, “SONIC HEDGEHOG MODULATORS” (priority 2009, published 2014).)
